US20220040136A1, “TREATMENT OF VULVOVAGINAL DISORDERS” (University of Rochester, priority 2018, published 2022)

What was measured:
[1] = system: human vulvar fibroblasts; assay: In vitro LPV model: SPM pre-treatment of patient vestibular/vulvar fibroblasts before inflammatory stimulation, IL-6 and PGE2 by ELISA/EIA; format: cell-based; details: pre-treated 10 hours with 5 nM SPM, vestibular and external vulvar fibroblasts
Protocol: (§1) FIGS. 5A, 5B, 5C, and 5D are a set of diagrams showing that PGE2 and IL-6 production is reduced by SPMs. Patient vestibular or vulvar fibroblasts were pre-treated for 10 hours with Lipoxin A4 (LxA4), Resolvin D2 (RvD2), (7R)-Maresin 1 or epi(7S)-Maresin 1 at a 5 nM concentration, then activated with IL-1β (Panel A; 10 pg/ml) or bradykinin (Panel B; 100 nM) for 48 hr. Culture media were collected and analyzed for PGE2 (Panel A) or IL-6 (Panel B) content. Patient fibroblasts were also activated first with IL-1β for 30 min then treated with 5 nM (7R)-Maresin 1 or LXA4 for 18 hours, followed by a booster dose for 6 hr. Culture media were collected and analyzed for PGE2 (Panel C) or IL-6 (Panel D) content. Mean+/−SEM of n=3, ANOVA *p<0.05 vs. activation only (no SPM).
FIGS. 23A and 23B are diagrams showing six SPMs are effective in reducing IL-6 and PGE2 production from fibroblasts when used as a pre-treatment and post-treatment. Patient vestibular or vulvar fibroblasts were pre-treated for 18 h with Resolvin D3 (RvD3), Resolvin D4 (RvD4), Resolvin D5 (RvD5), Resolvin E1 (RvE1), Protectin D1 or Protectin DX at a 5 nM concentration, pre-treated again for 30 min prior to activation, then activated with 10 pg/ml IL-1β for 48 h with a booster SPM dose at 24 h. Culture media were collected and analyzed for IL-6 (Panel A) and PGE2 (Panel B). Mean+/−SEM of n=6 (two cases run in triplicate), ANOVA *p<0.05 vs. activation only (IL-1b).
(§2) In this example, a fibroblast-based in vitro LPV model was established. Briefly, fibroblast strains were obtained from two regions (FIG. 1) of the lower genital tract of localized provoked vulvodynia (LPV) cases and pain-free controls in the manner described in Falsetta et al. Am J Obstet Gynecol 2015, vol. 213, pp. 38 e1-12 and Foster et al., Pain 2015, vol. 156, pp. 386-96.
(§3) Over 30 paired fibroblast strains obtained from LPV-afflicted cases (fulfilling Friedrich's Criteria)^25 and age/race-matched (critical variables influencing LPV),^26, 27 pain-free controls were obtained. All subjects who contributed to the library were premenopausal, denied oral corticosteroids, non-steroidal, immunomodulatory, or anti-inflammatory medication use, and reported an absence of systemic/cutaneous inflammatory conditions at the time of sample collection. Mechanical pain thresholds were determined (via a method of limits) (0.5-5 N) using a Wagner algometer. Fibroblast identity was confirmed by microscopy and fibroblast markers (vimentin, collagen); only low passage (˜4) cells are used.
(§4) Synthesized, purified and commercially available SPMs from each known SPM class (E-series Resolvins, D-series Resolvins, Maresins, Protectins and Lipoxins) at low/nanomolar concentrations (1-100 nM) were tested. […] The inventors used one of two treatment regimens proven effective in vulvar fibroblasts and other cells: 1) overnight pre-treatment, followed by another treatment 30 min prior to stimulation with proinflammatory stimuli for 48 hr with a third dose of SPMs at 24 hr post-challenge, or 2) post-treatment with SPMs after a 30 min pre-treatment with inflammatory stimuli, followed by a booster dose 18 hr later. Both treatment regimens are of interest, as SPMs are active throughout the inflammatory process.^5-7 Even SPMs administered after LPV onset are likely to prevent the worsening or spread of LPV pain.
Next, SPMs from other classes (E series Resolvins and Protectins), as well as additional SPMs from classes containing members that are effective in reducing IL-6 and PGE2 production (e.g., Maresins) were investigated in similar screen. […] SPMs that were effective in reducing more than one proinflammatory mediator in at least 2 tests can be examined for further testing using a preclinical mouse model. […] These additional effective SPMs include Resolvin D3, Resolvin D4, Resolvin D5, Resolvin E1, Protectin D1, and Protectin DX. […]

[2] = system: human vulvar fibroblasts; assay: In vitro LPV model: SPM post-treatment of already activated patient fibroblasts, IL-6 and PGE2; format: cell-based; details: post-treatment: IL-1β 30 min, then 5 nM SPM 18 hours, booster dose 6 hr
Protocol: as §1
FIGS. 24A and 24B are diagrams showing that six SPMs are effective in reducing IL-6 and PGE2 production from fibroblasts when used as a post-treatment. Patient vestibular or vulvar fibroblasts were activated first with IL-1β for 30 min then treated with RvD3, RvD4, RvD5, RvE1, Protectin D1 or Protectin DX at a 5 nM concentration for 18 hours, followed by a booster SPM dose for 24 hr. Culture media were collected and analyzed for IL-6 (Panel A) and PGE2 (Panel B) content. Mean+/−SEM of n=6 (two cases run in triplicate), ANOVA *p<0.05 vs. activation only (IL-1b). […] The magnitude of reduction was not as great as pre-treatment, but equally significant as the reduction from pre-treatment regimens.
as §2, §3, §4

CC/C=C\C/C=C\C[C@H](O)\C=C/C=C/C=C/[C@H](O)C/C=C\CCC(=O)O [Maresin 1, 7R,14S-docosa-4Z,8E,10E,12Z,16Z,19Z-hexaenoic acid]
significantly reduced: prostaglandin E2 (PGE2) production ([1]; then IL-1β 10 pg/ml 48 hr, FIG. 5A) | interleukin-6 (IL-6) production ([1]; then bradykinin 100 nM 48 hr, FIG. 5B) | PGE2 levels ([2]; FIG. 5C) | IL-6 levels ([2]; FIG. 5D)
